Nine compounds from patent US10105357B2, “Indication of antibiotic drugs for preparation of cancer inhibition pharmaceutical composition” (LAUNX BIOMEDICAL CO., LTD., priority 2014, dated 2018) can be followed below.

The viability is a read-out of living cells in per cent, often relative to untreated cells.

Format in all cases: cell-based, human
The subject of one series is cancer cell lines. Description: Cell viability analysis (WST-1) on cancer cell lines. The settings on record: drug 10 μM, 72 hours, WST-1; Table 3. A general note: Formazan colour is commonly taken as a measure of viable cells.
Series [1] has as its system HI650 (Lung Adenocarcinoma). Description: Cell viability analysis, lung cancer HI650. The settings on record: for viability at 10 µM: Homo sapiens, NCI-H1650, 72 h.
In series [2] the test system is A549 (Lung Adenocarcinoma). Description: Cell viability analysis, lung cancer A549. The following applies: for viability at 10 µM: Homo sapiens, A549, 72 h.
Series [3] relates to AGS (Gastric Adenocarcinoma). Description: Cell viability analysis, gastric cancer AGS. The settings on record: for viability at 10 µM: Homo sapiens, 72 h.
The test system of series [4] is MKN-45 (Gastric Adenocarcinoma). Description: Cell viability analysis, gastric cancer MKN-45. The settings on record: for viability at 10 µM: Homo sapiens, MKN-45, 72 h.
In series [5] the test system is HepG2 (Hepatocellular Carcinoma). Description: Cell viability analysis, hepatic cancer HepG2. The following applies: for viability at 10 µM: Homo sapiens, HepG2, 72 h.
Series [6] relates to LoVo (Colorectal Adenocarcinoma). The experiment in a line: Cell viability analysis, colon cancer LoVo. The following applies: for viability at 10 µM: Homo sapiens, LoVo, 72 h, read-out: cell viability (survival rate), LoVo, drug 10 μM, 72 hours, WST-1, OD450 nm.
In series [7] the test system is A375 (Amelanotic Melanoma). Description: Cell viability analysis, skin cancer A375. The settings on record: for viability at 10 µM: Homo sapiens, A-375, 72 h.
Series [8] relates to HeLa (Cervix Adenocarcinoma). The experiment in a line: Cell viability analysis, cervical cancer HeLa. The settings on record: for viability at 10 µM: Homo sapiens, HeLa, 72 h.
Series [9] deals with PC3 (p53−) (Prostate Adenocarcinoma). Description: Cell viability analysis, prostate cancer PC3. The following applies: for viability at 10 µM: Homo sapiens, 72 h.
In series [10] the test system is TSGH-8301 (Urinary Bladder Carcinoma). Description: Cell viability analysis, bladder cancer TSGH-8301. The following applies: Homo sapiens, 72 h.
The subject of series [11] is MCF7 (Mammary Gland, Adenocarcinoma). The experiment in a line: Cell viability analysis, breast cancer MCF7. The settings on record: for viability at 10 µM: Homo sapiens, MCF7, 72 h.
Series [12] deals with HL-60 (Acute Promyelocytic Leukemia). Description: Cell viability analysis, leukemia HL-60. The following applies: for viability at 10 µM: Homo sapiens, HL-60, 72 h.
Setting [13] is: read-out: cell viability (survival rate), H1650, drug 10 μM, 72 hours, WST-1, OD450 nm.
Where [14] appears, read: read-out: cell viability (survival rate), A549, drug 10 μM, 72 hours, WST-1, OD450 nm.
Setting [15] is: read-out: cell viability (survival rate), AGS, drug 10 μM, 72 hours, WST-1, OD450 nm.
The mark [16] stands for this setting: read-out: cell viability (survival rate), MKN-45, drug 10 μM, 72 hours, WST-1, OD450 nm.
The mark [17] stands for this setting: read-out: cell viability (survival rate), HepG2, drug 10 μM, 72 hours, WST-1, OD450 nm.
[18] abbreviates: read-out: cell viability (survival rate), A375, drug 10 μM, 72 hours, WST-1, OD450 nm.
Where [19] appears, read: read-out: cell viability (survival rate), HeLa, drug 10 μM, 72 hours, WST-1, OD450 nm.
Where [20] appears, read: read-out: cell viability (survival rate), PC3, drug 10 μM, 72 hours, WST-1, OD450 nm.
The mark [21] stands for this setting: read-out: cell viability (survival rate), MCF7, drug 10 μM, 72 hours, WST-1, OD450 nm.
[22] abbreviates: read-out: cell viability (survival rate), HL-60, drug 10 μM, 72 hours, WST-1, OD450 nm.
[23] abbreviates: read-out: cell viability (survival rate), TSGH, drug 10 μM, 72 hours, WST-1, OD450 nm.
Where [24] appears, read: drug 10 μM, 72 hours, WST-1, OD450 nm.

Structures can show the parent of a compound that is named as a salt. Where two headings read alike, the source gives them in different places.

As to `CO[C@H]1/C=C/O[C@@]2(C)Oc3c(C)c(O)c4c(O)c(c(/C=N/N5CCN(C)CC5)c(O)c4c3C2=O)NC(=O)/C(C)=C\C=C\[C@H](C)[C@H](O)[C@@H](C)[C@@H](O)[C@@H](C)[C@H](OC(C)=O)[C@@H]1C` [Rifampin (Rifadin, Rimactane), Rifampin], the “inhibition effect on different cancer cell lines” value in the series on cancer cell lines was “significant inhibition effect”. Besides, the viability at 10 µM in series [1] (drug 10 μM, 72 hours, WST-1, OD450 nm, read-out: cell viability (survival rate), H1650) worked out at 89.1%; in series [2] (drug 10 μM, 72 hours, WST-1, OD450 nm, read-out: cell viability (survival rate), A549) it was 45.2%; in series [3] (drug 10 μM, 72 hours, WST-1, OD450 nm, read-out: cell viability (survival rate), AGS), 111%; in series [4] (drug 10 μM, 72 hours, WST-1, OD450 nm, read-out: cell viability (survival rate), MKN-45), 61.1%; in series [5] (drug 10 μM, 72 hours, WST-1, OD450 nm, read-out: cell viability (survival rate), HepG2) it was 98.5%; in [6] it was 83.9%. The viability at 10 µM was 61.6% in series [7] (drug 10 μM, 72 hours, WST-1, OD450 nm, read-out: cell viability (survival rate), A375); 58.8% in [8] (drug 10 μM, 72 hours, WST-1, OD450 nm, read-out: cell viability (survival rate), HeLa); 69.9% in series [9] (drug 10 μM, 72 hours, WST-1, OD450 nm, read-out: cell viability (survival rate), PC3); 108% in [10] (drug 10 μM, 72 hours, WST-1, OD450 nm, read-out: cell viability (survival rate), TSGH); 39.7% in series [11] (drug 10 μM, 72 hours, WST-1, OD450 nm, read-out: cell viability (survival rate), MCF7); 105% in series [12] (drug 10 μM, 72 hours, WST-1, OD450 nm, read-out: cell viability (survival rate), HL-60).
Turning to `CN1[C@@H]2CC[C@H]1C[C@@H](OC(c1ccccc1)c1ccccc1)C2` [Benztropine mesylate], the “inhibition effect on different cancer cell lines” value in the series on cancer cell lines was “significant inhibition effect”. Besides, the viability at 10 µM in series [1] (setting [13]) worked out at 91.7%; in series [2] (setting [14]), 68.2%; in [3] (setting [15]) it was 83%; in series [4] (setting [16]), 89.4%; in series [5] (setting [17]), 86%; in [6], 81.4%. The viability at 10 µM in [7] (setting [18]) stood at 67.5%; in series [8] (setting [19]) it was 95.3%; in [9] (setting [20]) it was 75.3%; in series [11] (setting [21]) it was 63.3%; in [12] (setting [22]) it was 81.1%.
As for `Oc1c(Cl)cc(Cl)c2cccnc12` [Chloroxine], the “inhibition effect on different cancer cell lines” value with cancer cell lines is recorded as “significant inhibition effect”. For the same compound, the viability at 10 µM came out at 77.1% in series [1] (setting [13]); 120% in series [2] (setting [14]); 31.1% in [3] (setting [15]); 52.7% in series [4] (setting [16]); 93.9% in [5] (setting [17]); 85.5% in series [6]. Besides, the viability at 10 µM in series [7] (setting [18]) was found to be 72.5%; in series [8] (setting [19]), 71.7%; in series [9] (setting [20]) it was 87.2%; in series [10] (setting [23]), 62.7%; in series [11] (setting [21]), 68.7%; in series [12] (setting [22]), 50.5%.
Regarding `Nc1nc2c(ncn2COCCO)c(=O)[nH]1` [Acyclovir (Aciclovir), Acyclovir], the “inhibition effect on different cancer cell lines” value with cancer cell lines is given as “significant inhibition effect”. The viability at 10 µM turned out to be 126% in series [2] (setting [14]); 77.1% in series [3] (setting [15]); 55.9% in series [4] (setting [16]); 104% in [5] (setting [17]); 66.3% in series [6]; 112% in series [7] (setting [18]). The viability at 10 µM stood at 87.2% in series [8] (setting [19]); 102% in [9] (setting [20]); 107% in series [10] (setting [23]); 75.8% in series [11] (setting [21]); 91.6% in series [12] (setting [22]).
Take Tenofovir [Tenofovir (Viread)]: in the series on cancer cell lines, the “inhibition effect on different cancer cell lines” value is recorded as “significant inhibition effect”. The “cell viability (survival rate), H1650” value in series [1] (setting [24]) was found to be 55.6. Besides, in series [2] (setting [24]), the “cell viability (survival rate), A549” value turned out to be 47.7. Also, in series [3] (setting [24]), the “cell viability (survival rate), AGS” value is recorded as 67.0. Moreover, the “cell viability (survival rate), MKN-45” value in [4] (setting [24]) was 70.9. Further, the “cell viability (survival rate), HepG2” value in series [5] (setting [24]) was 99.0. In addition, the “cell viability (survival rate), LoVo” value in series [6] (setting [24]) amounted to 85.9. Moreover, the “cell viability (survival rate), A375” value in series [7] (setting [24]) is given as 60.6. In addition, in series [8] (setting [24]), the “cell viability (survival rate), HeLa” value amounted to 95.0. In [9] (setting [24]), the “cell viability (survival rate), PC3” value stood at 68.1. For the same compound, the “cell viability (survival rate), MCF7” value in series [11] (setting [24]) is on record as 71.1. Also, the “cell viability (survival rate), HL-60” value in [12] (setting [24]) stood at 97.6.
In the case of `CS(=O)(=O)c1ccc([C@@H](O)[C@@H](CF)NC(=O)C(Cl)Cl)cc1` [Florfenicol], the “inhibition effect on different cancer cell lines” value in the series with cancer cell lines is “significant inhibition effect”. The viability at 10 µM in series [1] (setting [13]) was 87%; in series [2] (setting [14]), 67.8%; in series [4] (setting [16]), 117%; in [5] (setting [17]), 161%; in series [6], 92.9%; in series [7] (setting [18]), 88.4%. The viability at 10 µM is 95.1% in series [8] (setting [19]); 102% in series [9] (setting [20]); 86.9% in series [10] (setting [23]); 123% in series [11] (setting [21]); 109% in series [12] (setting [22]).
For `CC[C@H]1OC(=O)[C@H](C)[C@@H](O[C@H]2C[C@@](C)(OC)[C@@H](O)[C@H](C)O2)[C@H](C)[C@@H](O[C@@H]2O[C@H](C)C[C@H](N(C)C)[C@H]2O)[C@](C)(O)C[C@@H](C)C(=O)[C@H](C)[C@@H](O)[C@]1(C)O` [Erythromycin (E-Mycin), Erythromycin], the “inhibition effect on different cancer cell lines” value in the series with cancer cell lines is given as “significant inhibition effect”. The viability at 10 µM was 90.4% in [1] (setting [13]); 63.8% in [2] (setting [14]); 27.7% in series [3] (setting [15]); 53.2% in series [4] (setting [16]); 93.5% in series [5] (setting [17]); 85.5% in series [6]. Also, the viability at 10 µM came to 93% in series [8] (setting [19]); 86% in [9] (setting [20]); 42.6% in series [10] (setting [23]); 45.2% in series [11] (setting [21]); 111% in [12] (setting [22]).
As for `CCCN1CCCC[C@H]1C(=O)Nc1c(C)cccc1C` [Ropivacaine HCl], the “inhibition effect on different cancer cell lines” value in the series with cancer cell lines is on record as “significant inhibition effect”. Also, the viability at 10 µM in [1] (setting [13]) was determined as 92.4%; in [2] (setting [14]), 118%; in [3] (setting [15]), 64.3%; in [4] (setting [16]) it was 132%; in series [5] (setting [17]) it was 98%; in series [6], 89.7%. Moreover, the viability at 10 µM in [7] (setting [18]) came out at 71.2%; in series [8] (setting [19]) it was 126%; in [9] (setting [20]), 110%; in series [11] (setting [21]), 99.2%; in [12] (setting [22]), 81.3%.
As to `CC(=O)O[C@]1(C(C)=O)CC[C@H]2[C@@H]3C=C(C)C4=CC(=O)CC[C@]4(C)[C@H]3CC[C@@]21C` [Megestrol Acetate], in the series on cancer cell lines, the “inhibition effect on different cancer cell lines” value is “significant inhibition effect”. Besides, the viability at 10 µM in series [1] (setting [13]) was 56%; in series [3] (setting [15]) it was 84.7%; in series [4] (setting [16]), 74.8%; in [5] (setting [17]), 88.9%; in [6], 109%; in series [7] (setting [18]), 80.8%. In addition, the viability at 10 µM in [8] (setting [19]) is 78.6%; in [9] (setting [20]) it was 80.3%; in [10] (setting [23]), 74.3%; in series [11] (setting [21]) it was 110%; in series [12] (setting [22]) it was 94%.
